Eleven molecules from ChEMBL document CHEMBL1201862, “PubChem BioAssay data set” (2004) can be followed below.

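1) Cells in 96-well plates. 2) Compound, 48 h, 5 concentrations. 3) Linear interpolation between surrounding doses. 4) Unreached endpoint = highest concentration. GI50 is the concentration that inhibits growth by half.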 Activity calls are given as the source filed them. Rule as the data show it: active = GI50 up to about 1.1 µM and inactive = higher. A value given as a limit tells only on which side of the number the result lay.

Among the test systems are CCRF-CEM; HCT-116; HOP-62; MDA-N; MOLT-4; OVCAR-5; OVCAR-8; RPMI-8226; RXF 393; SF-268; SK-MEL-28; SK-MEL-5; SN12C; UACC-257; COLO 205; NCI-H226; NCI-H23; NCI-H460; OVCAR-3; SF-539.
Holding throughout (assay): inhibition of tumour cell growth, NCI panel, 48 h

For `N#Cc1nc(Cc2cccs2)oc1N`, the GI50 is 47.5 µM (inactive) in the test with CCRF-CEM; > 100 µM (inactive) with HCT-116; > 100 µM (inactive) with HOP-62; > 100 µM (inactive) with MDA-N; > 100 µM (inactive) with MOLT-4; > 100 µM (inactive) with OVCAR-5. Further, the GI50 in the test with OVCAR-8, in the test on RPMI-8226, in the test on RXF 393, in the test on SF-268, in the test with SK-MEL-28 and in the test with SK-MEL-5 was > 100 µM (inactive) each time. Besides, the GI50 in the test on SN12C and in the test with UACC-257 was > 100 µM (inactive) each time.
`C=C(C)C[C@H](Sc1nc2ccccc2s1)[C@H](C)O`: the GI50 with COLO 205 was 35.5 µM (inactive); in the test on HCT-116, 39.4 µM (inactive); in the test on HOP-62 it was > 100 µM (inactive); in the test with MDA-N it was 37 µM (inactive); in the test on MOLT-4, 16.4 µM (inactive); in the test with NCI-H226 it was 22.5 µM (inactive). In addition, the GI50 was 31 µM (inactive) in the test on NCI-H23; 45.3 µM (inactive) in the test on NCI-H460; 18.8 µM (inactive) in the test with OVCAR-3; 65.8 µM (inactive) in the test on OVCAR-5; 34.3 µM (inactive) with OVCAR-8; 28.9 µM (inactive) in the test with RPMI-8226. Also, the GI50 was 48.3 µM (inactive) with RXF 393; 42.3 µM (inactive) in the test on SF-268; 41.8 µM (inactive) in the test with SF-539; 41.4 µM (inactive) in the test on SK-MEL-28; 18.1 µM (inactive) in the test with SK-MEL-5; 45.4 µM (inactive) with SN12C. The GI50 with UACC-257 is 32.4 µM (inactive).
As for `N#CCCN(CCC#N)CCN(CCN(CCC#N)CCC#N)CCN(CCC#N)CCC#N`, the GI50 in the test with COLO 205, in the test with HCT-116, with HOP-62, in the test with MDA-N, in the test on MOLT-4 and with NCI-H226 was > 100 µM (inactive) in each case. Also, the GI50 in the test on NCI-H23, in the test with NCI-H460, in the test with OVCAR-3, with OVCAR-5, in the test on OVCAR-8 and in the test on RPMI-8226 was > 100 µM (inactive) throughout. Besides, the GI50 with RXF 393, with SF-268, with SF-539, in the test on SK-MEL-28, in the test with SK-MEL-5 and in the test with SN12C was > 100 µM (inactive) in each case. For the same molecule, the GI50 in the test with UACC-257 was > 100 µM (inactive).
With `CCOP(=O)(OCC)[C@]12C[C@@H](C)C=C[C@H]1COC2=O`, the GI50 in the test on CCRF-CEM, in the test on COLO 205, in the test on HCT-116, in the test on HOP-62, with MDA-N and with MOLT-4 was > 100 µM (inactive) each time. Besides, the GI50 in the test on NCI-H23, in the test with NCI-H460, in the test on OVCAR-3, in the test with OVCAR-5, with OVCAR-8 and in the test with RPMI-8226 was > 100 µM (inactive) each time. Moreover, the GI50 in the test on RXF 393, in the test on SF-268, in the test with SF-539, in the test on SK-MEL-28, in the test with SK-MEL-5 and in the test on SN12C was > 100 µM (inactive) throughout. The GI50 in the test with UACC-257 is > 100 µM (inactive).
Turning to `Fc1c(F)c(C(F)(F)F)c(F)c(F)c1N/N=C\c1c[nH]c2ccccc12`, the GI50 with CCRF-CEM was 1.23 µM (inactive); in the test on COLO 205, 1.28 µM (inactive); in the test with HCT-116, 3.73 µM (inactive); in the test on HOP-62, 1.55 µM (inactive); in the test on MDA-N, 1.72 µM (inactive); with MOLT-4 it was 2.19 µM (inactive). The GI50 in the test with NCI-H23 was 3.95 µM (inactive); in the test with NCI-H460, 1.86 µM (inactive); in the test on OVCAR-3, 1.87 µM (inactive); in the test with OVCAR-5, 3.94 µM (inactive); with OVCAR-8, 6.43 µM (inactive); with RPMI-8226 it was 2.81 µM (inactive). For the same molecule, the GI50 in the test with RXF 393 was 2 µM (inactive); in the test on SF-268, 5.24 µM (inactive); in the test with SK-MEL-28, 6.82 µM (inactive); in the test with SK-MEL-5 it was 1.82 µM (inactive); in the test with SN12C it was 3.13 µM (inactive); with UACC-257 it was 3.52 µM (inactive).
Regarding `Nc1ncnc2c1nc(-c1ccccc1)n2C1OC(CO)C(O)C1O` (stereo unspecified), the GI50 in the test with COLO 205, in the test on HCT-116, with HOP-62, in the test on MDA-N, in the test with MOLT-4 and with NCI-H226 was > 100 µM (inactive) throughout. In addition, the GI50 in the test with NCI-H23, in the test on NCI-H460, in the test on OVCAR-3, in the test with OVCAR-5, in the test with OVCAR-8 and in the test with RPMI-8226 was > 100 µM (inactive) each time. The GI50 with RXF 393, in the test with SF-268, with SF-539, with SK-MEL-28, with SK-MEL-5 and in the test with SN12C was > 100 µM (inactive) each time. Moreover, the GI50 with UACC-257 was > 100 µM (inactive).
Consider `Cc1cc2nc(N3C(=O)/C(=C/Cc4ccco4)N=C3c3ccccc3)sc2cc1C`, for which the GI50 in the test with CCRF-CEM was 9.18 µM (inactive); in the test with COLO 205, 28 µM (inactive); in the test on HCT-116, 17 µM (inactive); with HOP-62, 54.7 µM (inactive); in the test on MDA-N it was 9.98 µM (inactive); in the test on MOLT-4, 20.3 µM (inactive). Also, the GI50 with NCI-H460 was 23.6 µM (inactive); in the test with OVCAR-3, 22.3 µM (inactive); in the test with OVCAR-5, 24.9 µM (inactive); with OVCAR-8 it was 31.6 µM (inactive); in the test with RPMI-8226, 23.7 µM (inactive); in the test on RXF 393 it was 13.6 µM (inactive). The GI50 is 40.4 µM (inactive) in the test on SF-268; 41.1 µM (inactive) in the test with SF-539; 64.6 µM (inactive) in the test with SK-MEL-28; 22.3 µM (inactive) in the test on SK-MEL-5; 25.6 µM (inactive) with SN12C; 26 µM (inactive) in the test with UACC-257.
As for `N/C(=N\c1ccc(Cl)cc1)NS(=O)(=O)c1c(C(F)(F)F)cccc1C(F)(F)F`, the GI50 in the test with COLO 205 was 11.1 µM (inactive); in the test on HCT-116 it was 10 µM (inactive); in the test with HOP-62, 24 µM (inactive); in the test with MDA-N, 22.2 µM (inactive); in the test with MOLT-4 it was > 100 µM (inactive); with NCI-H226, 27.6 µM (inactive). Moreover, the GI50 in the test with NCI-H23 is 5.58 µM (inactive); in the test with NCI-H460, 14.5 µM (inactive); in the test with OVCAR-3 it was 16.6 µM (inactive); with OVCAR-5 it was 20.2 µM (inactive); with OVCAR-8, 20.7 µM (inactive); in the test on RPMI-8226, > 100 µM (inactive). In addition, the GI50 is 45.8 µM (inactive) with RXF 393; 23.3 µM (inactive) in the test on SF-268; 41.3 µM (inactive) in the test on SF-539; 62.5 µM (inactive) in the test on SK-MEL-28; 17.5 µM (inactive) in the test with SK-MEL-5; 16.1 µM (inactive) in the test on SN12C. Moreover, the GI50 in the test with UACC-257 was 18.6 µM (inactive).
With `N/N=C1/C2CN3CCN(C2)CC1(c1ccc([N+](=O)[O-])cc1)C3`, the GI50 in the test on COLO 205, with HCT-116, in the test with HOP-62, with MDA-N, in the test with MOLT-4 and with NCI-H226 was > 100 µM (inactive) throughout. The GI50 in the test on NCI-H23, in the test with OVCAR-3, with OVCAR-5, in the test with OVCAR-8, in the test with RPMI-8226 and in the test with RXF 393 was > 100 µM (inactive) in each case. The GI50 in the test with SF-268, in the test with SF-539, in the test on SK-MEL-28, in the test on SK-MEL-5, with SN12C and in the test on UACC-257 was > 100 µM (inactive) in each case.
On to `O=C1O/C(=C\c2ccccc2)N(c2ccccc2)C1=O`, for which the GI50 in the test on CCRF-CEM, in the test with COLO 205, with HCT-116, with HOP-62, in the test on MDA-N and in the test on MOLT-4 was > 100 µM (inactive) each time. The GI50 in the test on NCI-H226, in the test on NCI-H23, in the test on NCI-H460, with OVCAR-3, in the test with OVCAR-5 and with OVCAR-8 was > 100 µM (inactive) each time. Also, the GI50 in the test on RPMI-8226, in the test on RXF 393, in the test with SF-268, in the test with SK-MEL-28, with SK-MEL-5 and with SN12C was > 100 µM (inactive) each time. The GI50 in the test with UACC-257 is > 100 µM (inactive).
Consider `N#CC1=C(N)C(C#N)(C#N)C(c2ccc(F)cc2)C=C1C1CC1` (stereo unspecified), for which the GI50 in the test with CCRF-CEM is 4.71 µM (inactive); with COLO 205 it was 12.4 µM (inactive); with HCT-116, 4.01 µM (inactive); in the test on HOP-62, 13.1 µM (inactive); with MDA-N it was 2.27 µM (inactive); with MOLT-4 it was 4.81 µM (inactive). Also, the GI50 in the test on NCI-H23 was 4.22 µM (inactive); in the test on NCI-H460 it was 5.2 µM (inactive); in the test on OVCAR-3 it was 5.27 µM (inactive); in the test on OVCAR-5 it was 12.6 µM (inactive); in the test with OVCAR-8, 9.93 µM (inactive); with RPMI-8226, 7.05 µM (inactive). The GI50 in the test on RXF 393 is 5.96 µM (inactive); in the test with SF-268 it was 4.81 µM (inactive); in the test with SF-539, 0.597 µM (active); with SK-MEL-28, 12.4 µM (inactive); with SK-MEL-5, 4.46 µM (inactive); with SN12C, 2.72 µM (inactive). The GI50 in the test with UACC-257 was 9.12 µM (inactive).
